Series [1] concerns the target T1, BRD4 bromodomain 1 (BD1) (Homo sapiens, UniProt O60885).
T1 construct: Selectivity against BRD4 bromodomain 1 (BD1), measured by HTRF; His; purchased Cayman 11720
The series can be described thus: BRD4 (BD1)-H4 tetra-acetylated HTRF histone-binding assay. In short, it runs like this: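 Recombinant BRD4 BD1 (10 nM) was combined with 13.3 nM biotinylated tetra-acetylated H4 peptide, Eu-anti-His antibody and APC-streptavidin in HEPES buffer, pH 7. Compound was pin-transferred and plates incubated ≥2 h before HTRF reading (665/620 nm ratio). Percent inhibition was normalised to vehicle (maximum) and no-peptide (minimum) wells.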
Background: Time-resolved FRET reads energy transfer from a long-lived donor to a nearby acceptor.

In series [2] the test system is ENL target gene expression (MYC, HOXA9). The series can be described thus: qRT-PCR of ENL target gene expression. In kind it is cell-based. From the text:
Quantitative reverse-transcriptase PCR (qRT-PCR). […] The ddCt method was used to quantify fold change differences in gene expression between control and treated samples (using expression of B2M for normalization).
In general terms: Real-time PCR tracks product formation cycle by cycle.

The nature of series [3]: Half-life in mouse liver microsomes. In kind it is in vitro ADME. Conditions: read-out: t1/2 (min) mouse liver microsomes.

pIC50: −log10 of the molar value.

On to `O=C(NC1CCC1)c1ccc2nc(-c3cccc(NS(=O)(=O)NCCN4CCCCC4)c3)cn2c1` [Compound 93], for which the pIC50 in series [1] (Table 1) and in series [1] (Table 2) was below 4.30 each time. For the same compound, the “suppression of ENL target gene expression” value in series [2] was “Suppression of ENL target gene expression”. In addition, in series [3], the half-life came to 9.98 min.

Source of the values: patent US20220274980A1, “PHARMACOLOGICAL INHIBITORS OF THE ENL YEATS DOMAIN” (priority 2019, published 2022).
